Test results: patent publication US20230192765A1, “PEPTIDES TARGETING SHP2 AND USES THEREOF” (UNIVERSITÀ DEGLI STUDI DI ROMA "TOR VERGATA", priority 2020, published 2023)
Where two headings read alike, the source gives them in different places. Primed or numbered codes have the meaning given here. [ ]: non-standard residue; d: D form. 5,6‑carboxyfluorescein″ = CF is 5,6 carboxyfluorescein; pY = N[C@@H](Cc1ccc(OP(=O)(O)O)cc1)C(=O)O

Columns and labels:
NIH3T3 cells [1] = assay: Cell uptake experiments (FACS); type: cell-based; settings: TAT linked to the C-terminus
Experimental: Cell uptake experiments were performed on NIH3T3 cells. About 200,000 cells were seeded on six-well plates and cultured in Dulbecco’s modified Eagle’s medium supplemented with 10% heat-inactivated fetal bovine serum (Gibco) and 1 % penicillin-streptomycin, at 37° C. with 5% CO2.
Two different strategies were followed. In a first set of experiments, the fluorescent peptide has been incubated with the cell-penetrating peptide (CPP) Pep-1. A Pep-1 stock solution was prepared by dissolving the peptide in ultrapure water. The fluorescent peptide was diluted in PBS from the DMSO stock solution. The peptides were mixed and incubated for 30 minutes at room temperature in a final volume of 400 µl. The conditions for cell delivery were optimized by investigating different cargo to CPP ratios. The mixture was then added to the cells, washed with PBS, together with 600 µl of serum-free medium (volumes for one well are reported). After one hour, 10% of fetal bovine serum (FBS) was added.
(§1) Cells were incubated for different times and then washed, collected and stained with SYTOX blue (1 mM, Invitrogen™) to identify the viable population and the green fluorescence of CFP9W5 was recordered to measure peptide uptake. Data were analysed with Kaluza Analysis Software (Beckman Coulter).
A second set of measurement was carried out using the TAT-conjugated peptide analog. […]

NIH3T3 cells [2] = assay: Peptide toxicity in the cell uptake experiments (Sytox); type: cell-based; settings: all the concentrations tested
Experimental: Cell viability in the FACS experiment was determined by using Sytox fluorescence.
as §1

[3] = test system: pathogenic variants of SHP2; settings: literature [Sun 2018; LaRochelle 2018]; cited from earlier work
[4] = test system: zebrafish embryos injected with Shp2a-D61G mRNA; assay: In vivo zebrafish rescue experiments, Shp2a-D61G embryos
Experimental: (§2) One cell stage zebrafish embryos were injected with a mixture of 120 ng/µl of mRNA encoding either GFP-2A-Shp2-D61G or GFP-2A-Shp2-wt (as a control), with or without OP, at 0.3 µM, 3 µM and 5 µM concentration. Embryos were selected based on proper GFP expression and imaged at 11 hours post fertilization (hpf) in their lateral position using the Leica M165 FC stereomicroscope. Images were analyzed using ImageJ [Schneider 2012], by measuring the ratio of the major and minor axis from a minimum of 31 embryos. Statistical analysis was performed in GraphPad Prism, using the analysis of variance (ANOVA) complemented by Tukey’s honest significant difference test (Tukey’s HSD). To measure the survival of injected embryos, a minimum of 48 embryos per group were grown up to 4 days post fertilization (dpf) and counted at 1 dpf and 4 dpf. Survival curves were plotted using GraphPad Prism, and the differences between samples were determined using the Log-rank (Mantel-Cox) test.

[5] = test system: zebrafish embryos injected with Shp2a-WT mRNA; assay: In vivo zebrafish experiments, Shp2a-WT embryos
Experimental: as §2

[6] = type: in vitro ADME; settings: human serum, up to 90 minutes, 37° C.
Experimental: (§3) The peptides were dissolved in DMSO (C=5 mg/mL). In eppendorf tubes, 1 mL of HEPES buffer (C = 25 mM, pH = 7.6) was temperature equilibrated at 37° C. before adding 250 µL of human serum and 20 µL of peptide solution; the reaction was followed for 90 minutes. At fixed intervals, 100 µL of the solution were withdrawn and added to 200 µL of absolute ethanol. These samples were kept on ice for 15 minutes, then centrifuged at 13,000 rpm for 5 minutes; the supernatant solutions were analyzed by HPLC and HPLC-MS with 20-60% B gradient in 20 minutes to follow the reaction. In parallel, samples containing peptide, buffer and ethanol only were also analyzed, too. A degradation resistance test was also conducted in DMEM (Dulbecco’s Modified Eagle Medium). The experimental conditions are similar to those described above; the reaction was followed for 72 hours. The enzymatic degradation resistance tests were followed by HPLC using a 5-50% B gradient in 20 minutes.

[7] = Peptide stability in DMEM; type: in vitro ADME; settings: three days
Experimental: as §3

N-SH2 domain of SHP1 = biological target: T1, N-SH2 domain of SHP1 (Homo sapiens, UniProt P29350); assay: SH2 domain microarray, SHP1; type: binding; settings: peptide 0.5, 5.0, 50 nM
T1 construct: host or cells: E. coli
T1 sequence (P29350 4-100 limits assumed): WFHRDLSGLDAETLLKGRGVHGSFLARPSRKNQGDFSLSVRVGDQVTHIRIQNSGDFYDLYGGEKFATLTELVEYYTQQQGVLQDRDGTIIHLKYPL
Experimental: (§4) The microarray experiment was conducted by the Protein Array and Analysis Core at the MD Anderson Cancer Center (University of Texas, USA), as previously described [Roth 2019]. Briefly, a library of SH2 domains [Huang 2008] was expressed as GST fusion in E. coli and purified on glutathione-sepharose beads. The domains were spotted onto nitrocellulose-coated glass slides (Oncyte Avid slides, Grace Bio-Labs) using a pin arrayer [Espejo 2002]. Each domain was spotted in duplicate.

[8] = test system: protein array of 97 human SH2 domains; assay: SH2 domain microarray; type: binding; settings: peptide 0.5, 5.0, 50 nM
Experimental: as §4

N-SH2 domain of SHP2 = biological target: T2, N-SH2 domain of SHP2 (Homo sapiens, UniProt Q06124); assay: Fluorescence anisotropy direct binding assay, N-SH2 domain; settings: N-SH2 domain; direct binding
T2 construct: constructs of the N-SH2 (residues 2-111), C-SH2 (109-217) and PTP (212-528) domains; His6 (esaHis); made in house; host or cells: E. coli (DE3) Rosetta2
T2 sequence (Q06124 2-111): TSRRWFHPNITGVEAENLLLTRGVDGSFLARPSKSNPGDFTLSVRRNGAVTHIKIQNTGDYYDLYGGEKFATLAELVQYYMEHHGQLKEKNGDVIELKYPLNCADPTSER
Experimental: Anisotropy measurements were carried out using a Horiba Fluoromax 4 spectrofluorimeter.
For the binding assays, the requested peptide amount (1 nM or 0.1 nM) was diluted in buffer (HEPES 10 mM, NaCl 150 mM, EDTA 1 mM, TCEP 1 mM, fluorescence buffer henceforth) and its anisotropy signal was recorded. The peptide was then titrated with increasing protein amounts, until the anisotropy signal reached a plateau at its maximum value, or up to a protein concentration where protein aggregation and consequent light scattering affected the anisotropy values (usually above 1 µM). The measurements of CF-labeled peptides were carried out using an excitation wavelength of 470 nm and collecting the anisotropy values at an emission wavelength of 520 nm. A 495 nm emission filter was used. For the Cy3-labeled peptides, excitation and emission wavelengths of 520 and 560 nm were used.
The Kd values were obtained fitting the data with the following equation, described in Van der Weert 2011, which avoids the need for the commonly used (but often unjustified) approximation of the concentration of unbound protein with the total concentration:
Here, [P]T and [L]T are the total protein and ligand concentrations, while r, ro and rmax are the anisotropy values at a given protein concentration, in the absence of protein and when the peptide is completely bound, respectively.

Molecule: CF-GLN-pY-IDLDW-GRKKRRQRRR ({5,6‑carboxyfluorescein″}-GLN[pY]IDLDWGRKKRRQRRR-NH2) [CF-P9W5-TAT]
- cell uptake, covalent strategy (NIH3T3 cells [1]): efficiently obtained
- cell killing (NIH3T3 cells [2]): did not cause any cell killing

Molecule: CC1(N)CCN(c2cnc(-c3cccc(Cl)c3Cl)c(N)n2)CC1 [SHP099]
- activity in pathogenic variants of SHP2 [3]: significantly impaired activity

Molecule: CC[C@H](C)[C@H](NC(=O)[C@H](Cc1ccc(C(F)(F)P(=O)(O)O)cc1)NC(=O)[C@H](CC(N)=O)NC(=O)[C@H](CC(C)C)NC(=O)CNC(C)=O)C(=O)N[C@@H](CC(=O)O)C(=O)N[C@@H](CC(C)C)C(=O)N[C@@H](CC(=O)O)C(=O)N[C@@H](Cc1c[nH]c2ccccc12)C(N)=O [Peptide P9ND0W5, GLN-F2Pmp-IDLDW]
- rescue of the gastrulation phenotype ([4]; 5 µM peptide): significant
- survival of embryos ([4]; co-injection 0.3 µM, 3 µM and 5 µM, counted 1 dpf and 4 dpf): significant and dose dependent improvement
- lethality of embryos ([5]; co-injection of 3 µM): not affected
- embryo shape at 11 hpf ([5]; co-injection with 3 µM peptide): no impact on their shape
- degradation (HPLC) [6]: No significant degradation
- degradation (HPLC) [7]: No significant degradation

Molecule: Cy3-GLN-pY-IDLDW [Cy3-P9W5]
- binding to N-SH2 domain of SHP1 (N-SH2 domain of SHP1): negligible
- binding on SH2 domain array [8]: significant binding was observed only with the N-SH2 domain of SHP2
- Kd (N-SH2 domain of SHP2): 23 ± 2 nM
